Measurements from ChEMBL document CHEMBL2074534, “In vitro P-glycoprotein affinity for atypical and conventional antipsychotics” (Life Sci, 2002).

Biological target: MDR1 (P-glycoprotein, ABCB1) (Homo sapiens, UniProt P08183)
Assay: TP_TRANSPORTER: ATP hydrolysis in membranes from MDR1-expressing insect cells
Assay type: functional, cell membranes, insect cell, Membrane

Chain of MDR1 (P-glycoprotein, ABCB1) (P08183 whole entry): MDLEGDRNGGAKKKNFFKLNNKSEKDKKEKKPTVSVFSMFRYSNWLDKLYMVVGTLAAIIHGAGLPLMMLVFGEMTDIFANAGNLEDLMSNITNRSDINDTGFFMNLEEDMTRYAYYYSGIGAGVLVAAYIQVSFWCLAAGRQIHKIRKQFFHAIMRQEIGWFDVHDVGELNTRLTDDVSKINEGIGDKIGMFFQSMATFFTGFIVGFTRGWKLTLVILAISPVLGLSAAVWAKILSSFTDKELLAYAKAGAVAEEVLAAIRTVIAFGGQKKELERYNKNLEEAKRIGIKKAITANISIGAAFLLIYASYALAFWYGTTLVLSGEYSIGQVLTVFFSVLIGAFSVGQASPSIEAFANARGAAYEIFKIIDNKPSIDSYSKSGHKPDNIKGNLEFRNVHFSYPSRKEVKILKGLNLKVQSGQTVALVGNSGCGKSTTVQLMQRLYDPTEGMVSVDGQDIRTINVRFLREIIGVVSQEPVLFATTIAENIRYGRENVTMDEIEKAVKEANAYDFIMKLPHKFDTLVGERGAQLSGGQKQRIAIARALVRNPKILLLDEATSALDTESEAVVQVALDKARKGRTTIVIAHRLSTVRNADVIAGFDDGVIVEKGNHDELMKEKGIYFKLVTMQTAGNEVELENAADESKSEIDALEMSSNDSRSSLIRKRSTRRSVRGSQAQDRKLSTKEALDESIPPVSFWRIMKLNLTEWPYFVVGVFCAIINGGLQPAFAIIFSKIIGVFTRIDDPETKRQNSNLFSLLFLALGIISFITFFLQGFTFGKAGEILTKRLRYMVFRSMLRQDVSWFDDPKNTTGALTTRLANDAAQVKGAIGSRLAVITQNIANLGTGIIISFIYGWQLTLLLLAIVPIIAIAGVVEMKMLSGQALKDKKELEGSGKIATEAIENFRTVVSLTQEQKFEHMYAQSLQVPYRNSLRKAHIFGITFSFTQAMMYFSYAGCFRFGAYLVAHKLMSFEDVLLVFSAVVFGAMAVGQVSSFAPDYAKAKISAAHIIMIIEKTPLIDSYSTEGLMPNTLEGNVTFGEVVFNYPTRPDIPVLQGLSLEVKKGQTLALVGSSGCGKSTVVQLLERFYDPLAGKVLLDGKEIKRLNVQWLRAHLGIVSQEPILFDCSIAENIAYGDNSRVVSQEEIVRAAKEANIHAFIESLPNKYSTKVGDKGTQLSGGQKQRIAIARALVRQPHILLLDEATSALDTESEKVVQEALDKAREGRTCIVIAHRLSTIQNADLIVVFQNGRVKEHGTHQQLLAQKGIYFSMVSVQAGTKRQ

Compound | Km [µM]
Cc1cc2c(s1)Nc1ccccc1N=C2N1CCN(C)CC1 [OLANZAPINE] | 8.3
CN(C)CCCN1c2ccccc2Sc2ccc(Cl)cc21 [CHLORPROMAZINE] | 27.4
O=C(CCCN1CCC(O)(c2ccc(Cl)cc2)CC1)c1ccc(F)cc1 [HALOPERIDOL] | 33
